Data reported in ChEMBL document CHEMBL2424635, “Discovery of novel histidine-derived lipo-amino acids: applied in the synthesis of ultra-short antimicrobial peptidomimetics having potent antimicrobial activity, salt resistance and protease stability” (Eur J Med Chem, 2013).
Values after ≈ are worked out from the molar mass of the structure shown. Active and inactive are the calls of the source. The calls are words filed in the database; no cut-off is given here.

Experiments:
Escherichia coli [1] = experiment: Antibacterial activity against Escherichia coli KCTC 1682 assessed as growth inhibition after 18 to 20 hrs by broth microdilution method; type: functional
[2] = system: Staphylococcus epidermidis; experiment: Antibacterial activity against Staphylococcus epidermidis KCTC 1917 assessed as growth inhibition after 18 to 20 hrs by broth microdilution method; type: functional
Staphylococcus aureus [3] = experiment: Antibacterial activity against Staphylococcus aureus KCTC 1621 assessed as growth inhibition after 18 to 20 hrs by broth microdilution method in presence of NaCl; type: functional
Bacillus subtilis [4] = experiment: Antibacterial activity against Bacillus subtilis KCTC 3068 assessed as growth inhibition after 18 to 20 hrs by broth microdilution method; type: functional
Escherichia coli [5] = experiment: Antibacterial activity against Escherichia coli KCTC 1682 assessed as growth inhibition at 50 ug/ml after 18 to 20 hrs by broth microdilution method in presence of trypsin; type: functional, organism-based
Salmonella typhimurium [6] = experiment: Antibacterial activity against Salmonella typhimurium KCTC 1926 assessed as growth inhibition after 18 to 20 hrs by broth microdilution method; type: functional, Salmonella enterica subsp. enterica serovar Typhimurium; settings: Salmonella enterica
Salmonella typhimurium [7] = experiment: Antibacterial activity against Salmonella typhimurium KCTC 1926 assessed as growth inhibition after 18 to 20 hrs by broth microdilution method in presence of NaCl; type: functional, Salmonella enterica subsp. enterica serovar Typhimurium; settings: Salmonella enterica
Escherichia coli [8] = experiment: Antibacterial activity against Escherichia coli KCTC 1682 assessed as growth inhibition after 18 to 20 hrs by broth microdilution method in presence of NaCl; type: functional
Staphylococcus aureus [9] = experiment: Antibacterial activity against methicillin-resistant Staphylococcus aureus CCARM 3090 assessed as growth inhibition after 18 to 20 hrs by broth microdilution method; type: functional
Staphylococcus aureus [10] = experiment: Antibacterial activity against Staphylococcus aureus KCTC 1621 assessed as growth inhibition after 18 to 20 hrs by broth microdilution method; type: functional
Staphylococcus aureus [11] = experiment: Antibacterial activity against Staphylococcus aureus KCTC 1621 assessed as growth inhibition at 50 ug/ml after 18 to 20 hrs by broth microdilution method in presence of trypsin; type: functional, organism-based
Staphylococcus aureus [12] = experiment: Antibacterial activity against methicillin-resistant Staphylococcus aureus CCARM 3089 assessed as growth inhibition after 18 to 20 hrs by broth microdilution method; type: functional
Pseudomonas aeruginosa [13] = experiment: Antibacterial activity against Pseudomonas aeruginosa KCTC 1637 assessed as growth inhibition after 18 to 20 hrs by broth microdilution method; type: functional
[14] = system: Staphylococcus epidermidis; experiment: Antibacterial activity against Staphylococcus epidermidis KCTC 1917 assessed as growth inhibition after 18 to 20 hrs by broth microdilution method in presence of NaCl; type: functional
Escherichia coli [15] = experiment: Antibacterial activity against Escherichia coli KCTC 1682 assessed as disruption of cellular structure at 3 x MIC after 1 hr by transmission electron microscopic analysis; type: functional, organism-based
[16] = Hemolytic activity in human RBC assessed as hemoglobin release after 1 hr; type: ADME, cell-based, Erythrocyte; settings: red blood cells (RBC)
Bacillus subtilis [17] = experiment: Antibacterial activity against Bacillus subtilis KCTC 3068 assessed as growth inhibition after 18 to 20 hrs by broth microdilution method in presence of NaCl; type: functional
Staphylococcus aureus [18] = experiment: Antibacterial activity against methicillin-resistant Staphylococcus aureus CCARM 3095 assessed as growth inhibition after 18 to 20 hrs by broth microdilution method; type: functional
Pseudomonas aeruginosa [19] = experiment: Antibacterial activity against Pseudomonas aeruginosa KCTC 1637 assessed as growth inhibition after 18 to 20 hrs by broth microdilution method in presence of NaCl; type: functional
Staphylococcus aureus [20] = experiment: Antibacterial activity against Staphylococcus aureus KCTC 1621 assessed as disruption of cellular structure at 3 x MIC after 1 hr by transmission electron microscopic analysis; type: functional, organism-based

Compound | MIC (Escherichia coli [1]) | MIC [2] | MIC (Staphylococcus aureus [3]) | MIC (Bacillus subtilis [4]) | growth inhibition (GI) (Escherichia coli [5]) | MIC (Salmonella typhimurium [6]) | MIC (Salmonella typhimurium [7]) | MIC (Escherichia coli [8]) | MIC (Staphylococcus aureus [9]) | MIC (Staphylococcus aureus [10]) | growth inhibition (GI) (Staphylococcus aureus [11]) | MIC (Staphylococcus aureus [12]) | MIC (Pseudomonas aeruginosa [13]) | MIC [14] | Activity (Escherichia coli [15]) | HC50 at 1 h [16] | MIC (Bacillus subtilis [17]) | MIC (Staphylococcus aureus [18]) | MIC (Pseudomonas aeruginosa [19]) | Activity (Staphylococcus aureus [20])
CCCCCCCCCCn1c[n+](CCCCCCCCCC)cc1C[C@H](NC(=O)[C@@H](N)CCCNC(=N)N)C(=O)N[C@@H](CCCNC(=N)N)C(N)=O | 8 µg/mL | 4 µg/mL | 4 µg/mL | 4 µg/mL | Active | 8 µg/mL | 16 µg/mL | 16 µg/mL | 4 µg/mL | 4 µg/mL | Active | 8 µg/mL | 8 µg/mL | 4 µg/mL | Active | 121 µg/mL | 4 µg/mL | 4 µg/mL | 8 µg/mL | Active
CCCCCCC/C=C/Cn1cncc1C[C@H](NC(=O)[C@@H](N)CCCNC(=N)N)C(=O)N[C@@H](CCCNC(=N)N)C(N)=O | 32 µg/mL (≈ 52.9 µM) | 4 µg/mL (≈ 6.61 µM) | 32 µg/mL | 4 µg/mL (≈ 6.61 µM) |  | 64 µg/mL (≈ 106 µM) | 64 µg/mL | > 64 µg/mL | 16 µg/mL (≈ 26.5 µM) | 8 µg/mL (≈ 13.2 µM) |  | 16 µg/mL (≈ 26.5 µM) | 32 µg/mL (≈ 52.9 µM) | 64 µg/mL |  | > 256 µg/mL | 16 µg/mL | 16 µg/mL (≈ 26.5 µM) | 64 µg/mL | 
CCCCCCCCCCn1c[n+](CCCCCCCCCC)cc1C[C@H](NC(=O)[C@H](CCCNC(=N)N)NC(=O)[C@@H](N)CCCNC(=N)N)C(N)=O | 16 µg/mL | 8 µg/mL | 4 µg/mL | 8 µg/mL | Active | 8 µg/mL | 16 µg/mL | 16 µg/mL | 8 µg/mL | 8 µg/mL | Active | 8 µg/mL | 8 µg/mL | 4 µg/mL | Active | 116 µg/mL | 4 µg/mL | 8 µg/mL | 8 µg/mL | Active
CCCCCCCn1c[n+](CCCCCCC)cc1C[C@H](NC(=O)[C@@H](N)CCCNC(=N)N)C(=O)N[C@@H](CCCNC(=N)N)C(N)=O | 4 µg/mL | 2 µg/mL | 8 µg/mL | 2 µg/mL | Active | 8 µg/mL | 32 µg/mL | > 32 µg/mL | 8 µg/mL | 4 µg/mL | Active | 4 µg/mL | 8 µg/mL | 16 µg/mL | Active | > 256 µg/mL | 8 µg/mL | 4 µg/mL | 8 µg/mL | Active
CCCCCCCCCCn1c[n+](CCCCCCCCCC)cc1C[C@H](N)C(=O)N[C@@H](CCCNC(=N)N)C(N)=O | 4 µg/mL | 2 µg/mL | 2 µg/mL | 2 µg/mL | Active | 4 µg/mL | 8 µg/mL | 8 µg/mL | 4 µg/mL | 2 µg/mL | Active | 2 µg/mL | 8 µg/mL | 2 µg/mL |  | 49 µg/mL | 2 µg/mL | 2 µg/mL | 8 µg/mL | 
CCCCCCCCCCCCCCn1c[n+](CCCCCCCCCCCCCC)cc1C[C@H](NC(=O)[C@@H](N)CCCNC(=N)N)C(=O)N[C@@H](CCCNC(=N)N)C(N)=O | > 64 µg/mL | > 64 µg/mL | > 64 µg/mL | > 64 µg/mL |  | > 64 µg/mL | > 64 µg/mL | > 64 µg/mL | > 64 µg/mL | > 64 µg/mL |  | > 64 µg/mL | > 64 µg/mL | > 64 µg/mL |  | > 256 µg/mL | > 64 µg/mL | > 64 µg/mL | > 64 µg/mL | 
CC[C@H](C)[C@H](NC(=O)CN)C(=O)NCC(=O)N[C@@H](C)C(=O)N[C@H](C(=O)N[C@@H](CC(C)C)C(=O)N[C@@H](CCCCN)C(=O)N[C@H](C(=O)N[C@@H](CC(C)C)C(=O)N[C@H](C(=O)N[C@H](C(=O)NCC(=O)N[C@@H](CC(C)C)C(=O)N1CCC[C@H]1C(=O)N[C@@H](C)C(=O)N[C@@H](CC(C)C)C(=O)N[C@H](C(=O)N[C@@H](CO)C(=O)N[C@@H](Cc1c[nH]c2ccccc12)C(=O)N[C@H](C(=O)N[C@@H](CCCCN)C(=O)N[C@@H](CCCNC(=N)N)C(=O)N[C@@H](CCCCN)C(=O)N[C@@H](CCCNC(=N)N)C(=O)N[C@@H](CCC(N)=O)C(=O)N[C@@H](CCC(N)=O)C(N)=O)[C@@H](C)CC)[C@@H](C)CC)[C@@H](C)O)[C@@H](C)O)C(C)C)C(C)C |  |  |  |  | inactive |  |  |  |  |  | inactive |  |  |  |  |  |  |  |  | 
CC[C@H](C)[C@H](NC(=O)[C@H](CCCCN)NC(=O)[C@H](CCC(=O)O)NC(=O)[C@H](CCCCN)NC(=O)[C@H](CO)NC(=O)[C@H](CCCCN)NC(=O)[C@H](CCCNC(=N)N)NC(=O)[C@H](Cc1ccccc1)NC(=O)[C@H](Cc1ccccc1)NC(=O)[C@H](CC(=O)O)NC(=O)CNC(=O)[C@H](CC(C)C)NC(=O)[C@@H](N)CC(C)C)C(=O)NCC(=O)N[C@@H](CCCCN)C(=O)N[C@@H](CCC(=O)O)C(=O)N[C@@H](Cc1ccccc1)C(=O)N[C@@H](CCCCN)C(=O)N[C@@H](CCCNC(=N)N)C(=O)N[C@H](C(=O)N[C@H](C(=O)N[C@@H](CCC(N)=O)C(=O)N[C@@H](CCCNC(=N)N)C(=O)N[C@H](C(=O)N[C@@H](CCCCN)C(=O)N[C@@H](CC(=O)O)C(=O)N[C@@H](Cc1ccccc1)C(=O)N[C@@H](CC(C)C)C(=O)N[C@@H](CCCNC(=N)N)C(=O)N[C@@H](CC(N)=O)C(=O)N[C@@H](CC(C)C)C(=O)N[C@H](C(=O)N1CCC[C@H]1C(=O)N[C@@H](CCCNC(=N)N)C(=O)N[C@H](C(=O)N[C@@H](CCC(=O)O)C(=O)N[C@@H](CO)C(N)=O)[C@@H](C)O)C(C)C)[C@@H](C)CC)C(C)C)[C@@H](C)CC | 32 µg/mL (≈ 7.12 µM) | 16 µg/mL (≈ 3.56 µM) | > 64 µg/mL | 32 µg/mL (≈ 7.12 µM) | inactive | 16 µg/mL (≈ 3.56 µM) | 32 µg/mL | 16 µg/mL | > 32 µg/mL | 32 µg/mL (≈ 7.12 µM) | inactive | > 32 µg/mL | 64 µg/mL (≈ 14.2 µM) | > 64 µg/mL |  | > 256 µg/mL | 16 µg/mL | > 32 µg/mL | 64 µg/mL | 
CCCCCCCCCCn1cncc1C[C@H](NC(=O)[C@@H](N)CCCNC(=N)N)C(=O)N[C@@H](CCCNC(=N)N)C(N)=O | 16 µg/mL (≈ 26.4 µM) | 2 µg/mL (≈ 3.3 µM) | 32 µg/mL | 2 µg/mL (≈ 3.3 µM) | Active | 32 µg/mL (≈ 52.7 µM) | > 64 µg/mL | > 64 µg/mL | 8 µg/mL (≈ 13.2 µM) | 4 µg/mL (≈ 6.59 µM) | Active | 8 µg/mL (≈ 13.2 µM) | 16 µg/mL (≈ 26.4 µM) | 32 µg/mL |  | > 256 µg/mL | 8 µg/mL | 8 µg/mL (≈ 13.2 µM) | 16 µg/mL | 
CCCCCCCCCCn1c[n+](CCCCCCCCCC)cc1C[C@H](N)C(=O)N[C@@H](CCCNC(=N)N)C(=O)N[C@@H](CCCNC(=N)N)C(N)=O | 8 µg/mL | 4 µg/mL | 8 µg/mL | 4 µg/mL | Active | 8 µg/mL | 16 µg/mL | 16 µg/mL | 4 µg/mL | 4 µg/mL | Active | 4 µg/mL | 8 µg/mL | 4 µg/mL | Active | 110 µg/mL | 4 µg/mL | 4 µg/mL | 8 µg/mL | Active
